This passage reports IC50 results from ChEMBL document CHEMBL1149340, “Optimization and SAR for dual ErbB-1/ErbB-2 tyrosine kinase inhibition in the 6-furanylquinazoline series” (Bioorg Med Chem Lett, 2006).

A word on the IC50: it is the concentration needed to halve the response being measured.

Test [1] has as its target Epidermal growth factor receptor (Homo sapiens, UniProt P00533).
The next test has as its system HN5. Nature of the test: cells. The note with it: Homo sapiens, HN5, 72 h.
The target of test [2] is Receptor tyrosine-protein kinase erbB-2 (Homo sapiens, UniProt P04626).
Chain of Receptor tyrosine-protein kinase erbB-2 (P04626 whole entry): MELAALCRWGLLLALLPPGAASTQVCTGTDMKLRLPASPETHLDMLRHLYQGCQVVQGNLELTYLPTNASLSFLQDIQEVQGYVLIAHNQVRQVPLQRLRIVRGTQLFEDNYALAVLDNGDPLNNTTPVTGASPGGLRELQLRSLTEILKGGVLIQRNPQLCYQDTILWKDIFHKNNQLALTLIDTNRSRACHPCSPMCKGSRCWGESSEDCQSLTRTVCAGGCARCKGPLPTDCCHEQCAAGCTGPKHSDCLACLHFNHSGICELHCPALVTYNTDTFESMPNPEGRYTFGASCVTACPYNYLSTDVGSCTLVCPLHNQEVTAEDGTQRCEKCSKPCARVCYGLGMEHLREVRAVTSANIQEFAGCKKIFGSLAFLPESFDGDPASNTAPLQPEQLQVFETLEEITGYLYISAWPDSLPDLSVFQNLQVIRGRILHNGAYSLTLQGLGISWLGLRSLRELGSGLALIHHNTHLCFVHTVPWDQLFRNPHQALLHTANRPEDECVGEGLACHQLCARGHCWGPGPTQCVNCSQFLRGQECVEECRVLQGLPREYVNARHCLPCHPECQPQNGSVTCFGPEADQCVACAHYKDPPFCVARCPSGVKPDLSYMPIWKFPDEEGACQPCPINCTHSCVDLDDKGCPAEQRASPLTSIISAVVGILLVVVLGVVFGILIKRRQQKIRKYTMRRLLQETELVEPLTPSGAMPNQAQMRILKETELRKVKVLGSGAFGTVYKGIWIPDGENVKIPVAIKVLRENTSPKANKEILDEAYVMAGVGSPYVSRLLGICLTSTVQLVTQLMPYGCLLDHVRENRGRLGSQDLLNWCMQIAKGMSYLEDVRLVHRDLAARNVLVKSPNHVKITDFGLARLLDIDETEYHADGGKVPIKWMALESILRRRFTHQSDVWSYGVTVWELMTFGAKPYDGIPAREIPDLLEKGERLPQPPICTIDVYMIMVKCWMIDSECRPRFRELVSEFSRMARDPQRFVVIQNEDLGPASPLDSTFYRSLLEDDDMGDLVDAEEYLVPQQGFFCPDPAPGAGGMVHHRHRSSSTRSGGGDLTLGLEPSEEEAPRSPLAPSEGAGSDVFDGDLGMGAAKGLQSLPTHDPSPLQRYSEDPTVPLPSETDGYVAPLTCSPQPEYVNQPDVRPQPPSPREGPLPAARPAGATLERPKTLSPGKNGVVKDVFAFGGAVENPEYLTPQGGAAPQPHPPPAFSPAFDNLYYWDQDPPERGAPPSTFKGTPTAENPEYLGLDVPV
The next test has as its system BT-474. Nature of the test: Inhibition of BT474 cell growth after 72 hrs. The format is functional, cell-based. The note with it: Homo sapiens, BT-474, 72 h.
The next test relates to NCI-N87. Nature of the test: Inhibition of N87 cell growth after 72 hrs. The format is functional, cell-based. The note with it: Homo sapiens, NCI-N87, 72 h.
Another test relates to HFF. Nature of the test: Inhibition of HFF cell growth. The following applies: Homo sapiens.

Chain of Epidermal growth factor receptor (P00533 whole entry): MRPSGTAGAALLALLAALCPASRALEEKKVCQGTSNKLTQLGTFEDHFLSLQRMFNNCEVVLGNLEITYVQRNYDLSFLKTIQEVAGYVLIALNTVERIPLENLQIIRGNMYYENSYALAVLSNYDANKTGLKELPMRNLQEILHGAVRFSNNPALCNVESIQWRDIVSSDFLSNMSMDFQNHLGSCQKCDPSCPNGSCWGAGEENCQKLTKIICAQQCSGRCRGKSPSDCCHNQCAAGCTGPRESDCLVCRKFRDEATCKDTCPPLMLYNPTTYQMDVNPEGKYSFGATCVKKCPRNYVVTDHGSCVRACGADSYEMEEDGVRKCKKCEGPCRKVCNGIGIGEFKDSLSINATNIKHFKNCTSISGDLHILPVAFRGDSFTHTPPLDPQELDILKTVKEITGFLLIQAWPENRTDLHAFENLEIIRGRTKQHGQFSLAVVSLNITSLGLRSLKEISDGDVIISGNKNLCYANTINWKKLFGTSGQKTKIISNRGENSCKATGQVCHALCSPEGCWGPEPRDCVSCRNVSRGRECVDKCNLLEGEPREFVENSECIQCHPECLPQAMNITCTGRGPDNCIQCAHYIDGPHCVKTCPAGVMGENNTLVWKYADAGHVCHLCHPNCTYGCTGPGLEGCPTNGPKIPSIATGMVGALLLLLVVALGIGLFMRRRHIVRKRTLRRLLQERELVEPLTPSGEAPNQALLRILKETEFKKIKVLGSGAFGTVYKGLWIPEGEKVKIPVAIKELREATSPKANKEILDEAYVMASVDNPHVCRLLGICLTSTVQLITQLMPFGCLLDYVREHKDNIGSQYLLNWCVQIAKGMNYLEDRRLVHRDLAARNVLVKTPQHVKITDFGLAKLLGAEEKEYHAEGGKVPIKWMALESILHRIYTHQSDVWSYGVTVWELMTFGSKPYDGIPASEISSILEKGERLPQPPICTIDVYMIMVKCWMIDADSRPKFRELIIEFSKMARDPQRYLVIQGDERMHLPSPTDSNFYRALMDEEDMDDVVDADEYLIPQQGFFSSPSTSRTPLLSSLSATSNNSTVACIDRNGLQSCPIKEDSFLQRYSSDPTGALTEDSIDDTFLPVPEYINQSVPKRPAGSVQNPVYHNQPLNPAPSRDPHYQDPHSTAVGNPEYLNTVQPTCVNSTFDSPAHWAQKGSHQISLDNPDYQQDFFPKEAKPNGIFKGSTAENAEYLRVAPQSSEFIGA
Description for HN5: Inhibition of HN5 cell growth after 72 hrs

Take `O=S(=O)(CCNCc1ccc(-c2ccc3ncnc(Nc4ccc(OCc5cccc(F)c5)c(Cl)c4)c3c2)o1)c1ccccc1`: the IC50 in test [1] came to 19 nM; in the test on HN5, 1070 nM; in test [2], 30 nM; with BT-474, 1040 nM; with NCI-N87 it was 870 nM.

For `O=S(=O)(CCCCNCc1ccc(-c2ccc3ncnc(Nc4ccc(OCc5ccccc5)c(Cl)c4)c3c2)o1)c1ccccc1`, the results for the IC50 in test [1] and in test [2] were 50 nM and 38 nM, respectively.

`CCCN(CCS(C)(=O)=O)Cc1ccc(-c2ccc3ncnc(Nc4ccc(OCc5cccc(F)c5)c(Cl)c4)c3c2)o1`: the IC50 in test [1] came out at 85 nM; in test [2] it was 20 nM; in the test on BT-474, 250 nM.

With `[O-][S+]1CCN(Cc2ccc(-c3ccc4ncnc(Nc5ccc(OCc6cccc(F)c6)c(Cl)c5)c4c3)o2)CC1`, the IC50 in test [1] is 28 nM; with HN5 it was 60 nM; in test [2], 18 nM; with HFF it was 8180 nM; in the test with BT-474 it was 100 nM; with NCI-N87, 80 nM.

As for `[O-][S+]1CCN(Cc2ccc(-c3ccc4ncnc(Nc5ccc(OCc6ccccc6)c(Cl)c5)c4c3)o2)CC1`, the IC50 in test [1] came out at 12 nM; with HN5, 320 nM; in test [2], 23 nM; in the test with BT-474 it was 420 nM; in the test with NCI-N87, 460 nM.

`CS(=O)(=O)CCNCc1ccc(-c2ccc3ncnc(Nc4ccc(OCc5ccccc5)cc4)c3c2)o1`: the IC50 came to 27 nM in test [1]; 650 nM with HN5; 26 nM in test [2]; 280 nM in the test on BT-474; 870 nM with NCI-N87.

As to `CS(=O)(=O)CCNCc1ccc(-c2ccc3ncnc(Nc4ccc(OCc5cccc(F)c5)cc4)c3c2)o1`, the IC50 in test [1] stood at 24 nM; with HN5 it was 840 nM; in test [2], 31 nM; with BT-474, 770 nM; in the test on NCI-N87 it was 860 nM.

For the compound `CS(=O)(=O)CCNCc1ccc(-c2ccc3ncnc(Nc4ccc(OCc5cccc(C(F)(F)F)c5)cc4)c3c2)o1`, the IC50 in test [1] is 91 nM; in the test with HN5 it was 6900 nM; in test [2], 360 nM; in the test with BT-474, 4200 nM; with NCI-N87, 5200 nM.

As to `CC(C)S(=O)(=O)CCNCc1ccc(-c2ccc3ncnc(Nc4ccc(OCc5cccc(F)c5)c(Cl)c4)c3c2)o1`, the IC50 in test [2] was 24 nM; in the test on HFF, above 30000 nM; in the test on BT-474, 200 nM; in the test with NCI-N87, 130 nM.

On to `CS(=O)(=O)CCNCc1ccc(-c2ccc3ncnc(Nc4ccc(OCc5ccccc5)c(Br)c4)c3c2)o1`, for which the results for the IC50 with BT-474 and with NCI-N87 were 270 nM and 370 nM, respectively.

For `COc1cc(Nc2ncnc3ccc(-c4ccc(CNCCS(C)(=O)=O)o4)cc23)ccc1OCc1cccc(F)c1`, the IC50 in the test with BT-474 worked out at 2070 nM; in the test on NCI-N87, 1900 nM.

Regarding `CS(=O)(=O)CCOCc1ccc(-c2ccc3ncnc(Nc4ccc(OCc5cccc(F)c5)c(Cl)c4)c3c2)o1`, the IC50 in test [1] was 26 nM; in test [2] it was 17 nM; with HFF, above 30000 nM; in the test on BT-474 it was 170 nM.

With `[O-][S+]1CCN(Cc2ccc(-c3ccc4ncnc(Nc5ccc(OCc6ccccc6)c(F)c5)c4c3)o2)CC1`, the IC50 in test [1] worked out at 16 nM; in the test on HN5, 1000 nM; in test [2], 35 nM; in the test with BT-474, 1200 nM; with NCI-N87, 1130 nM.

In the case of `[O-][S+]1CCN(Cc2ccc(-c3ccc4ncnc(Nc5ccc(OCc6cccc(F)c6)c(C(F)(F)F)c5)c4c3)o2)CC1`, the IC50 turned out to be 89 nM in test [1]; 1110 nM with HN5; 141 nM in test [2]; 3000 nM in the test on BT-474; 2090 nM with NCI-N87.

As for `CS(=O)(=O)CCNCc1ccc(-c2ccc3ncnc(Nc4ccc(OCc5ccccc5)c(Cl)c4)c3c2)o1`, the IC50 in test [1] amounted to 18 nM; in the test with HN5 it was 250 nM; in test [2], 22 nM; with BT-474 it was 250 nM; with NCI-N87 it was 280 nM.

Take `CCCS(=O)(=O)CCNCc1ccc(-c2ccc3ncnc(Nc4ccc(OCc5cccc(F)c5)c(Cl)c4)c3c2)o1`: the IC50 is 21 nM in test [1]; 1600 nM with HN5; 26 nM in test [2]; 3140 nM in the test on BT-474; 8660 nM in the test on NCI-N87.

Consider `CS(=O)(=O)CCNCc1ccc(-c2ccc3ncnc(Nc4ccc(OCc5cccc(Br)c5)cc4)c3c2)o1`, for which the IC50 is 43 nM in test [1]; 2560 nM in the test with HN5; 100 nM in test [2]; 2130 nM in the test on BT-474; 3460 nM in the test with NCI-N87.

With `CS(=O)(=O)CCNCc1ccc(-c2ccc3ncnc(Nc4ccc(OCc5ccccc5)c(C(F)(F)F)c4)c3c2)o1`, the IC50 was 160 nM in test [1]; 5900 nM in the test on HN5; 200 nM in test [2]; 10100 nM in the test on BT-474; 6500 nM in the test on NCI-N87.

For the compound `CS(=O)(=O)CCN(Cc1ccccc1)Cc1ccc(-c2ccc3ncnc(Nc4ccc(OCc5cccc(F)c5)c(Cl)c4)c3c2)o1`, the IC50 came out at 141 nM in test [2] and 610 nM in the test with BT-474.

In the case of `CS(=O)(=O)CCNCc1ccc(-c2ccc3ncnc(Nc4ccc(OCc5cccc(F)c5)c(C(F)(F)F)c4)c3c2)o1` [GW576484X], the IC50 in test [1] is 80 nM; in the test on HN5, 1940 nM; in test [2], 220 nM; with BT-474 it was 4490 nM; in the test on NCI-N87, 2890 nM.

For `O=S(=O)(CCOCc1ccc(-c2ccc3ncnc(Nc4ccc(OCc5cccc(F)c5)c(Cl)c4)c3c2)o1)c1ccccc1` [GW615311X], the results for the IC50 in test [1] and in test [2] were 25 nM and 28 nM, respectively.

Turning to `CS(=O)(=O)CCN(CC#N)Cc1ccc(-c2ccc3ncnc(Nc4ccc(OCc5cccc(F)c5)c(Cl)c4)c3c2)o1` [GW616030X], the IC50 is 27 nM in test [1], 22 nM in test [2], above 30000 nM with HFF and 67 nM in the test with BT-474.

Regarding `CS(=O)(=O)CCNCc1ccc(-c2ccc3ncnc(Nc4ccc(OCc5cccc(F)c5)c(Cl)c4)c3c2)o1` [LAPATINIB], the IC50 with HFF is 9900 nM; in the test on BT-474 it was 80 nM; with NCI-N87, 80 nM.
